Among the data in US20210395239A1 (Hoffmann-La Roche Inc., priority 2018, published 2021) are IC50 values, retold here.

The assay concerns the target T1, human TLR8 (Homo sapiens, UniProt Q9NR97).
T1 construct: host or cells: HEK293 (HEK-Blue hTLR8)
T1 sequence (Q9NR97 27-1041): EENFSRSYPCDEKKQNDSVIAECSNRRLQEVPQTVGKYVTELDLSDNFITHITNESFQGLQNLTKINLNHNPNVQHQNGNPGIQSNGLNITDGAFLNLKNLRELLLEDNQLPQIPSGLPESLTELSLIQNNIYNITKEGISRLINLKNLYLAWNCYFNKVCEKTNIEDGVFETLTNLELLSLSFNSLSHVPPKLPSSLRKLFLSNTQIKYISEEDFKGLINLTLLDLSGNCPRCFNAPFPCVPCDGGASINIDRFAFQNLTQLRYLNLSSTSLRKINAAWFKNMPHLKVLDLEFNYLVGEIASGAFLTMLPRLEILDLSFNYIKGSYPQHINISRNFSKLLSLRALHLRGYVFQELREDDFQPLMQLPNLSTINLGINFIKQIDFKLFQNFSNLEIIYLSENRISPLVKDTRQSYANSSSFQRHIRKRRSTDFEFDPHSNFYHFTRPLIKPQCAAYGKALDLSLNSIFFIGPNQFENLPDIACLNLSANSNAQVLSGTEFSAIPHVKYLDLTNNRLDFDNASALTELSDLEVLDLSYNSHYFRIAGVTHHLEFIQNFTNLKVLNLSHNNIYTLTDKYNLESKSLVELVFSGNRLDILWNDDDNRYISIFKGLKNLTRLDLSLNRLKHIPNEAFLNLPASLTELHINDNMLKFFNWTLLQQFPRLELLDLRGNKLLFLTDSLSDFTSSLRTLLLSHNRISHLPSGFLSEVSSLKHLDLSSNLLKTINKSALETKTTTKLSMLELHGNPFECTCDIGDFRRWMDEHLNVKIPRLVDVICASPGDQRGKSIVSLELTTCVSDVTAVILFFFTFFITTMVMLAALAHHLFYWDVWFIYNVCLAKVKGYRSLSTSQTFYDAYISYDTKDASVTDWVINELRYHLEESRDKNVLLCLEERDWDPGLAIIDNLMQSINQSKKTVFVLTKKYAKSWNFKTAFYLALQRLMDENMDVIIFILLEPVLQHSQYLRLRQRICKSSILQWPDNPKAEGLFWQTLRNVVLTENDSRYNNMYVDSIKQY
Kind of assay: HEK293-Blue-hTLR-8 cells assay (SEAP reporter, R848 stimulation). The format is cell-based. The settings on record: HEK293-Blue-hTLR8 cells, R848, 20 hrs; read-out: HEK/hTLR8 IC50. The essentials: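 Antagonism read as reduced R848-induced SEAP reporter secretion, detected by QUANTI-Blue absorbance at 620–655 nm after 2 h. Reporter cells were exposed to compound dilutions in DMEM/10% FBS, 1% DMSO, for 20 h at 37° C.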
With `Cc1cc(N2CCN(C[C@H]3CN(c4ccc(C#N)c5ncccc45)C[C@@H](C)O3)CC2)nc(N2CC(N)C(F)C2)n1` (stereo in doubt) [Example 54, 5-[(2S,6R)-2-[[4-[2-[(3S,4R)-3-amino-4-fluoro-pyrrolidin-1-yl]-6-methyl-pyrimidin-4-yl]piperazin-1-yl]methyl]-6-methyl-morpholin-4-yl]quinoline-8-carbonitrile], the IC50 came to 3 nM. To `C[C@@H]1CN(c2ccc(C#N)c3ncccc23)C[C@H](CN2CCC(C#N)(c3ccc(N4CCNCC4)cc3)CC2)O1` [Example 11, 5-[(2S,6R)-2-[[4-cyano-4-(4-piperazin-1-ylphenyl)-1-piperidyl]methyl]-6-methyl-morpholin-4-yl]quinoline-8-carbonitrile] belongs 13 nM. Then `Cc1cc(N2CCN(C[C@H]3CN(c4ccc(C#N)c5ncccc45)C[C@@H](C)O3)CC2)nc(N2CC(N)C(F)(F)C2)n1` (stereo partly drawn) [Example 63, 5-[(2S,6R)-2-[[4-[2-(4-amino-3,3-difluoro-pyrrolidin-1-yl)-6-methyl-pyrimidin-4-yl]piperazin-1-yl]methyl]-6-methyl-morpholin-4-yl]quinoline-8-carbonitrile], with 13 nM; and `C[C@@H]1CN(c2ccc(C#N)c3ncccc23)C[C@H](CN2CCN(c3cccc(N4CCNCC(O)C4)n3)CC2)O1` (stereo partly drawn) [Example 41, 5-[(2S,6R)-2-[[4-[6-(6-hydroxy-1,4-diazepan-1-yl)-2-pyridyl]piperazin-1-yl]methyl]-6-methyl-morpholin-4-yl]quinoline-8-carbonitrile], with 32 nM.

For the compound `C[C@@H]1CN(c2ccc(C#N)c3ncccc23)C[C@H](CN2CCN(c3cccc(N4CC(N)C(F)C4)n3)CC2)O1` (stereo partly drawn) [Example 40, 5-[(2S,6R)-2-[[4-[6-(3-amino-4-fluoro-pyrrolidin-1-yl)-2-pyridyl]piperazin-1-yl]methyl]-6-methyl-morpholin-4-yl]quinoline-8-carbonitrile], the IC50 came to 17 nM. Then `C[C@@H]1CN(c2ccc(C#N)c3ncccc23)C[C@H](CN2CCN(c3cccc(N4CCN(C)CC4)n3)CC2)O1` [Example 33, 5-[(2R,6S)-2-methyl-6-[[4-[6-(4-methylpiperazin-1-yl)-2-pyridyl]piperazin-1-yl]methyl]morpholin-4-yl]quinoline-8-carbonitrile], with 7 nM. Then `C[C@@H]1CN(c2cc(=O)n(C)c3ncccc23)C[C@H](CN2CC(c3ccc(N4CC(C)(N)C4)cc3)C2)O1` [Example 176, 4-[(2S,6R)-2-[[3-[4-(3-amino-3-methyl-azetidin-1-yl)phenyl]azetidin-1-yl]methyl]-6-methyl-morpholin-4-yl]-1-methyl-1,8-naphthyridin-2-one], with 323 nM.

Turning to `Cc1cc(N2CCN(C[C@H]3CN(c4ccc(C#N)c5ncccc45)C[C@@H](C)O3)CC2)nc(N2C[C@@H]3COC[C@@H](C2)N3)n1` [Example 58, 5-[(2R,6S)-2-methyl-6-[[4-[6-methyl-2-[(1R,5R)-3-oxa-7,9-diazabicyclo[3.3.1]nonan-7-yl]pyrimidin-4-yl]piperazin-1-yl]methyl]morpholin-4-yl]quinoline-8-carbonitrile], the IC50 stood at 4 nM.

With `C[C@@H]1CN(c2ccc(C#N)c3ncccc23)C[C@H](CN2CCN(c3ccnc(N4CCN[C@@H](CO)C4)n3)CC2)O1` [Example 29, 5-[(2S,6R)-2-[[4-[2-[(3R)-3-(hydroxymethyl)piperazin-1-yl]pyrimidin-4-yl]piperazin-1-yl]methyl]-6-methyl-morpholin-4-yl]quinoline-8-carbonitrile], the IC50 amounted to 10 nM. Take `C[C@@H]1CN(c2ccc(C#N)c3ncccc23)C[C@H](CN2CCN(c3ccnc(N[C@H]4CNC[C@H]4F)n3)CC2)O1` [Example 24, 5-[(2S,6R)-2-[[4-[2-[[(3S,4R)-4-fluoropyrrolidin-3-yl]amino]pyrimidin-4-yl]piperazin-1-yl]methyl]-6-methyl-morpholin-4-yl]quinoline-8-carbonitrile]: the IC50 is 11 nM. To `C[C@@H]1CN(c2ccc(C#N)n3ncc(F)c23)C[C@H](CN2CCN(c3ccc(N4CC5(CN(C)C5)C4)nc3)CC2)O1` [Example 170, 3-fluoro-4-[(2R,6S)-2-methyl-6-[[4-[6-(6-methyl-2,6-diazaspiro[3.3]heptan-2-yl)-3-pyridyl]piperazin-1-yl]methyl]morpholin-4-yl]pyrazolo[1,5-a]pyridine-7-carbonitrile] belongs 13 nM; to `C[C@@H]1CN(c2ccc(C#N)c3ncccc23)C[C@H](CN2CCN(c3ccnc(N4CC(N)C4)n3)CC2)O1` [Example 23, 5-[(2S,6R)-2-[[4-[2-(3-aminoazetidin-1-yl)pyrimidin-4-yl]piperazin-1-yl]methyl]-6-methyl-morpholin-4-yl]quinoline-8-carbonitrile], 18 nM; to `C[C@@H]1CN(c2ccc(C#N)c3ncccc23)C[C@H](CN2CCN(c3ccnc(N4CCN(C(=O)C5CCN5)CC4)n3)CC2)O1` (stereo partly drawn) [Example 34, 5-[(2S,6R)-2-[[4-[2-[4-(azetidine-2-carbonyl)piperazin-1-yl]pyrimidin-4-yl]piperazin-1-yl]methyl]-6-methyl-morpholin-4-yl]quinoline-8-carbonitrile], 4 nM. To `Cc1cc(N2CCN(C[C@H]3CN(c4ccc(C(F)(F)F)c5nccnc45)C[C@@H](C)O3)CC2)nc(N2CCNCC2)n1` [Example 65, (2R,6S)-2-methyl-6-[[4-(6-methyl-2-piperazin-1-yl-pyrimidin-4-yl)piperazin-1-yl]methyl]-4-[8-(trifluoromethyl)quinoxalin-5-yl]morpholine] belongs 9 nM; to `C[C@@H]1CN(c2ccc(C#N)c3ncccc23)C[C@H](CN2CCN(c3ccnc(N4CCN(C)CC4)n3)CC2)O1` [Example 22, 5-((2R,6S)-2-methyl-6-((4-(2-(4-methylpiperazin-1-yl)pyrimidin-4-yl)piperazin-1-yl)methyl)morpholino)quinoline-8-carbonitrile], 3 nM; to `Cc1cc(N2CCN(C[C@H]3CN(c4ccc(C#N)c5nccnc45)C[C@@H](C)O3)CC2)nc(N2CCNCC2)n1` [Example 64, 8-[(2R,6S)-2-methyl-6-[[4-(6-methyl-2-piperazin-1-yl-pyrimidin-4-yl)piperazin-1-yl]methyl]morpholin-4-yl]quinoxaline-5-carbonitrile], 2 nM.

Take `C[C@@H]1CN(c2ccc(C#N)n3ncc(F)c23)C[C@H](CN2CCN(c3ccc(C[C@@H]4CNCCO4)cc3)CC2)O1` [Example 186, 3-fluoro-4-[(2R,6S)-2-methyl-6-[[4-[4-[[(2R)-morpholin-2-yl]methyl]phenyl]piperazin-1-yl]methyl]morpholin-4-yl]pyrazolo[1,5-a]pyridine-7-carbonitrile]: the IC50 was determined as 23 nM. To `Cc1cc(N2CCNCC2)nc(N2CCN(C[C@H]3CN(c4ccc(C#N)c5ncccc45)C[C@@H](C)O3)CC2)n1` [Example 68, 5-[(2R,6S)-2-methyl-6-[[4-(4-methyl-6-piperazin-1-yl-pyrimidin-2-yl)piperazin-1-yl]methyl]morpholin-4-yl]quinoline-8-carbonitrile] belongs 2 nM; to `C[C@@H]1CN(c2ccc(C#N)c3ncccc23)C[C@H](CN2CCN(c3cccc(N4CCC(N)CC4)n3)CC2)O1` [Example 36, 5-[(2S,6R)-2-[[4-[6-(4-amino-1-piperidyl)-2-pyridyl]piperazin-1-yl]methyl]-6-methyl-morpholin-4-yl]quinoline-8-carbonitrile], 11 nM; to `C[C@@H]1CN(c2ccc(C#N)c3ncccc23)C[C@H](CN2CCN(c3cc(N4CCNCC4)ncn3)CC2)O1` [Example 18, 5-[(2R,6S)-2-methyl-6-[[4-(6-piperazin-1-ylpyrimidin-4-yl)piperazin-1-yl]methyl]morpholin-4-yl]quinoline-8-carbonitrile], 6 nM. As for `Cc1cc(N2CCN(C[C@H]3CN(c4ccc(C#N)c5ncccc45)C[C@@H](C)O3)CC2)nc(NC2CNCC2C#N)n1` (stereo partly drawn) [Example 57, 5-[(2S,6R)-2-[[4-[2-[(4-cyanopyrrolidin-3-yl)amino]-6-methyl-pyrimidin-4-yl]piperazin-1-yl]methyl]-6-methyl-morpholin-4-yl]quinoline-8-carbonitrile], the IC50 is 4 nM.
